Reference: patent US20170027951A1, “METHODS AND COMPOSITIONS TO TREAT CANCERS INVOLVING EGFR” (Southern Research Institute, priority 2015, published 2017)

Legend:
[1] = test system: HCT116 cells; assay: CellTiter-Glo cell viability assay in HCT116 cells (MT KRas, express HGF); assay type: cell-based; conditions: FIG. 2A; 96 hours after treatment; gefitinib 5 μM, JNJ 38877605 1 μM, PD184161 0.01 or 0.02 μM
Text: Due to the presence of MT KRas, HCT116 cells have activated ERK signaling.

[2] = test system: RKO cells; assay: Clonogenic (colony formation) assay in RKO cells; assay type: cell-based; conditions: FIG. 1B; 10 days after treatment; gefitinib 5 μM, JNJ 38877605 1 μM, PD184161 0.01, 0.05 or 1 μM
Description: (§1) For clonogenic assay cells were seeded in 6-well plates at a density of 400 cells per well and were treated as indicated. After colony formation (8-12 days), cells were stained with crystal violet (0.5% w/v) (see Kueng W., et al., Anal Biochem (1989) 182: 16-19), and the number of colonies was determined using ImageQuant TL software (GE Healthcare Life Sciences, Pittsburgh, Pa., US).
The effect of treatment with gefitinib alone or in combination with an inhibitor of MET kinase activity (using the inhibitor JNJ388777605) or inhibitor of MEK kinase activity (using the inhibitor PD184161) on viability and clonogenic growth was determined in RKO and HT29 cells.

[3] = test system: HCT116 cells; assay: Clonogenic (colony formation) assay in HCT116 cells; assay type: cell-based; conditions: FIG. 2B; 10 days after treatment; gefitinib 5 μM, JNJ 38877605 1 μM, PD184161 0.01 or 0.02 μM
Description: HCT116 cells, which are MT KRas, were treated with gefitinib (5 μM) in the absence or presence of a MET kinase inhibitor (JNJ 38877605; 1 μM) or a MEKI kinase inhibitor (PD184161; 0.01 μM or 0.02 μM) as indicated.
as §1

[4] = test system: RKO cells; assay: CellTiter-Glo cell viability assay in RKO cells (WT KRas, express HGF); assay type: cell-based; conditions: FIG. 1A; 96 hours after treatment; gefitinib 5 μM, JNJ 38877605 1 μM, PD184161 0.01, 0.05 or 1 μM
Description: Cell viability assays were conducted using the CellTiter-Glo® Luminescent Cell Viability Assay kit purchased from Promega Corporation (Madison, Wis., US) and used per the manufacturer's protocol. Cells were seeded in 96-well plates at a density of 1×10^4 cells per well and cell viability was assessed at the indicated time points.

[5] = test system: DiFi cells; assay: Caspase-Glo 3/7 activity assay in DiFi cells with or without CCD-18Co fibroblast conditioned medium; assay type: cell-based; conditions: FIG. 3C, 18 hr post-treatment; for caspase 3/7 activity (apoptosis), single agent: gefitinib 1 μM or JNJ 38877605 1 μM alone, no fibroblast conditioned media
Text: Media were removed and replaced with serum-free MEM.

[6] = test system: ERK 1/2; assay: Western blot of ERK 1/2 phosphorylation in RKO cells; assay type: cell-based; conditions: FIG. 1D, gefitinib dose or times post-treatment
Description: Immunoblotting was performed using standard procedures. Nitrocellulose membranes (GE Healthcare Life Sciences, Pittsburgh, Pa.) were blocked with 5% non-fat milk for 1 hour at room temperature, and incubated with primary antibodies overnight at 4° C. Primary antibodies used were anti-p-ERK1/2 (Cell Signaling Technology, Inc., Danvers, Mass., US) and anti-β-actin (Sigma-Aldrich Co. LLC, Saint Louis, Mo., US). Following washing with TBS-T buffer, membranes were incubated with horseradish peroxidase-conjugated secondary antibodies for 1 hour and then washed with TBS-T. Immunoblots were developed using the Amersham Western Blotting ECL chemiluminescent reagents (GE Healthcare Life Sciences, Pittsburgh, Pa., US). Protein loading was normalized by probing blots for the expression of β-actin.

[7] = patients with mCRC, Amado et al. 2008; cited from earlier work

Cn1cc(-c2ccc3nnc(C(F)(F)c4ccc5ncccc5c4)n3n2)cn1 [JNJ 38877605]
effect on HCT116 cell viability [1]: no apparent effect on cell viability
effect on clonogenic growth (colony formation) of RKO cells [2]: no apparent effect on clonogenic growth
effect on clonogenic growth (colony formation) of HCT116 cells [3]: no apparent effect on clonogenic growth
effect on RKO cell viability [4]: no apparent effect on cell viability
caspase 3/7 activity (apoptosis), single agent [5]: no apparent effect on induction of caspases/apoptosis

COc1cc2ncnc(Nc3ccc(F)c(Cl)c3)c2cc1OCCCN1CCOCC1 [gefitinib]
effect on HCT116 cell viability [1]: modestly decreased cell viability
effect on clonogenic growth (colony formation) of RKO cells [2]: no apparent effect on clonogenic growth
effect on clonogenic growth (colony formation) of HCT116 cells [3]: no apparent effect on clonogenic growth
effect on RKO cell viability [4]: modest
phosphorylation status of ERK 1/2 (p-ERK 1/2 by Western blot) [6]: an increase in the amount of p-ERK 1/2
caspase 3/7 activity (apoptosis), single agent [5]: increase in caspase 3/7 activity
caspase 3/7 activity (apoptosis) in the presence of fibroblast conditioned media (FIB) ([5]; gefitinib 1 μM, JNJ 38877605 1 μM, CCD-18Co conditioned media): inhibit gefitinib-induced apoptosis

PD184161
effect on HCT116 cell viability [1]: no apparent effect on cell viability
effect on clonogenic growth (colony formation) of RKO cells [2]: no apparent effect on clonogenic growth
effect on clonogenic growth (colony formation) of HCT116 cells [3]: no apparent effect on clonogenic growth
effect on RKO cell viability [4]: no apparent effect on cell viability

panitumumab
KRas WT patients who benefit [7]: 17%
